In brackets after ≈: the same amount, converted by molar mass.
Tested on: Mycobacterium tuberculosis variant bovis BCG
Assay: Antibacterial activity against Mycobacterium bovis BCG ATCC 35734 up to 2 weeks by HT-SPOTi assay
Format: functional
Conditions: ATCC 35734, 336 h

| Compound | MIC |
| --- | --- |
| CCCCCCCC(=O)NCC#Cc1cn([C@H]2C[C@H](O)[C@@H](COP(=O)(N[C@@H](C)C(=O)OC)Oc3cccc4ccccc34)O2)c(=O)[nH]c1=O (stereo partly drawn) | 62.5 µg/mL (≈ 89.5 µM) |
| CCCCCCCC(=O)NCC#Cc1cn([C@H]2C[C@H](O)[C@@H](COP(=O)(N[C@@H](C)C(=O)OC)Oc3ccccc3)O2)c(=O)[nH]c1=O (stereo partly drawn) | > 250 µg/mL |
| CCCCCCCC(=O)NCC#Cc1cn([C@H]2C[C@H](O)[C@@H](COP(=O)(N[C@@H](C)C(=O)OCC(C)C)Oc3cccc4ccccc34)O2)c(=O)[nH]c1=O (stereo partly drawn) | 125 µg/mL (≈ 169 µM) |
| CCCCCCCC(=O)NCC#Cc1cn([C@H]2C[C@H](O)[C@@H](COP(=O)(N[C@@H](C)C(=O)OCCC)Oc3ccccc3)O2)c(=O)[nH]c1=O (stereo partly drawn) | 125 µg/mL (≈ 185 µM) |
| CCCCCCCC(=O)NCC#Cc1cn([C@H]2C[C@H](O)[C@@H](CO)O2)c(=O)[nH]c1=O | > 250 µg/mL |
| CCCCCCCC(=O)NCC#Cc1cn([C@H]2C[C@H](O)[C@@H](COP(=O)(N[C@@H](C)C(=O)OCC)Oc3ccccc3)O2)c(=O)[nH]c1=O (stereo partly drawn) | 250 µg/mL (≈ 377 µM) |
| CCCCCCCC(=O)NCC#Cc1cn([C@H]2C[C@H](O)[C@@H](COP(=O)(NC(C)(C)C(=O)OCc3ccccc3)Oc3ccccc3)O2)c(=O)[nH]c1=O (stereo partly drawn) | 125 µg/mL (≈ 169 µM) |
| CCCCCCCC(=O)NCC#Cc1cn([C@H]2C[C@H](O)[C@@H](COP(=O)(N[C@@H](C)C(=O)OCc3ccccc3)Oc3cccc4ccccc34)O2)c(=O)[nH]c1=O (stereo partly drawn) | 250 µg/mL (≈ 323 µM) |
| CCCCCCCC(=O)NCC#Cc1cn([C@H]2C[C@H](O)[C@@H](COP(=O)(NCC(=O)OCc3ccccc3)Oc3ccccc3)O2)c(=O)[nH]c1=O (stereo partly drawn) | > 250 µg/mL |
| CCCCCCCC(=O)NCC#Cc1cn([C@H]2C[C@H](O)[C@@H](COP(=O)(N[C@@H](C)C(=O)OCc3ccccc3)Oc3ccccc3)O2)c(=O)[nH]c1=O (stereo partly drawn) | 125 µg/mL (≈ 172 µM) |
| CCCCCCCC(=O)NCC#Cc1cn([C@H]2C[C@H](O)[C@@H](COP(=O)(N[C@@H](C)C(=O)OCC)Oc3cccc4ccccc34)O2)c(=O)[nH]c1=O (stereo partly drawn) | 125 µg/mL (≈ 175 µM) |
| CCCCCCCC(=O)NCC#Cc1cn([C@H]2C[C@H](O)[C@@H](COP(=O)(N[C@H](C)C(=O)OCc3ccccc3)Oc3ccccc3)O2)c(=O)[nH]c1=O (stereo partly drawn) | 62.5 µg/mL (≈ 86.2 µM) |
| CCCCCCCC(=O)NCC#Cc1cn([C@H]2C[C@H](O)[C@@H](COP(=O)(N[C@H](C(=O)OCc3ccccc3)C(C)C)Oc3ccccc3)O2)c(=O)[nH]c1=O (stereo partly drawn) | 125 µg/mL (≈ 166 µM) |

— ChEMBL document CHEMBL3259765, “ProTides of N-(3-(5-(2'-deoxyuridine))prop-2-ynyl)octanamide as potential anti-tubercular and anti-viral agents” (Bioorg Med Chem, 2014)
